Source: the supplement of paper PMC11061612

Assays:
Assay in all cases: combination Emax (second highest fraction inhibited in the dose matrix, 72 h); higher = more inhibition; extreme values may be limits of the assay
5637 (Bladder Carcinoma) = tested on: 5637 (Bladder Carcinoma)
In short: (§1)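 After 24 hours at 37°C and 5% CO2 in 1536-well plates, cells in DMEM/F12 or RPMI plus 10% FBS received two-drug dose matrices for 72 hours. Viability came from CellTiter-Glo 2.0 luminescence and was scaled as inhibition, anchored at 0 by vehicle wells and at 1 by blank wells. Combination Emax is taken as the second-highest inhibition in the matrix, and Bliss excess as the observed combination effect less EA + EB − EA·EB, with EA and EB the single-agent effects.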

COLO-792 (Melanoma) = tested on: COLO-792 (Melanoma)
In short: as §1

[1] = tested on: DMS-53 (Small Cell Lung Carcinoma)
In short: as §1

EB2 (Burkitt's Lymphoma) = tested on: EB2 (Burkitt's Lymphoma)
In short: as §1

[2] = tested on: EPLC-272H (Other Solid Carcinomas)
In short: as §1

[3] = tested on: ESO26 (Esophageal Adenocarcinoma)
In short: as §1

EW-16 (Ewing's Sarcoma) = tested on: EW-16 (Ewing's Sarcoma)
In short: as §1

EW-7 (Ewing's Sarcoma) = tested on: EW-7 (Ewing's Sarcoma)
In short: as §1

[4] = tested on: GA-10 (Burkitt's Lymphoma)
In short: as §1

[5] = tested on: HCC1395 (Breast Carcinoma)
In short: as §1

[6] = tested on: HCC1428 (Breast Carcinoma)
In short: as §1

[7] = tested on: HT55 (Colorectal Carcinoma)
In short: as §1

KP-N-YN (Neuroblastoma) = tested on: KP-N-YN (Neuroblastoma)
In short: as §1

[8] = tested on: LS-411N (Colorectal Carcinoma)
In short: as §1

[9] = tested on: LU-165 (Small Cell Lung Carcinoma)
In short: as §1

[10] = tested on: MDA-MB-436 (Breast Carcinoma)
In short: as §1

[11] = tested on: MHH-ES-1 (Ewing's Sarcoma)
In short: as §1

PEO1 (Ovarian Carcinoma) = tested on: PEO1 (Ovarian Carcinoma)
In short: as §1

RH-41 (Rhabdomyosarcoma) = tested on: RH-41 (Rhabdomyosarcoma)
In short: as §1

[12] = tested on: SW620 (Colorectal Carcinoma)
In short: as §1

Structure (SMILES) | combination Emax (5637 (Bladder Carcinoma)) | combination Emax (COLO-792 (Melanoma)) | combination Emax [1] | combination Emax (EB2 (Burkitt's Lymphoma)) | combination Emax [2] | combination Emax [3] | combination Emax (EW-16 (Ewing's Sarcoma)) | combination Emax (EW-7 (Ewing's Sarcoma)) | combination Emax [4] | combination Emax [5] | combination Emax [6] | combination Emax [7] | combination Emax (KP-N-YN (Neuroblastoma)) | combination Emax [8] | combination Emax [9] | combination Emax [10] | combination Emax [11] | combination Emax (PEO1 (Ovarian Carcinoma)) | combination Emax (RH-41 (Rhabdomyosarcoma)) | combination Emax [12]
CN(C)CCCOc1ccc(-c2ccc3ncc4c(c3c2)n(C2CCOCC2)c(=O)n4C)cn1 [AZD0156] + CCN(CCO)CCCOc1ccc2c(Nc3cc(CC(=O)Nc4cccc(F)c4)[nH]n3)ncnc2c1 [AZD2811] (first compound max 1 µM, 7x7, partner max 1 µM) | 0.609 | 0.358 | 0.0911 | 0.416 | 0.415 | 0.0581 | 0.423 | 0.403 | 0.808 | 0.193 | 0.161 | 0.16 | 0.486 | 0.137 | 0.114 | 0.0531 | 0.55 | 0.157 | 0.235 | 0.158
CC(=O)c1c(C)c2cnc(Nc3ccc(N4CCNCC4)cn3)nc2n(C2CCCC2)c1=O [Palbociclib] + Cn1cnc2c(F)c(Nc3ccc(Br)cc3Cl)c(C(=O)NOCCO)cc21 [Selumetinib] (first compound max 10 µM, 7x7, partner max 10 µM) | 0.345 | 0.5 | 0.212 | 0.492 | 0.7 | 0.299 | 0.311 | 0.669 | 0.941 | 0.0651 | 0.165 | 0.755 | 0.318 | 0.715 | 0.0618 | 0.224 | 0.352 | 0.295 | 0.269 | 0.72
Cn1cnc2c(F)c(Nc3ccc(Br)cc3Cl)c(C(=O)NOCCO)cc21 [Selumetinib] + C=CCn1c(=O)c2cnc(Nc3ccc(N4CCN(C)CC4)cc3)nc2n1-c1cccc(C(C)(C)O)n1 [AZD1775] (first compound max 10 µM, partner max 1 µM) | 0.85 | 0.694 | 0.247 | 0.785 | 0.857 | 0.678 | 0.402 | 0.806 | 1 | 0.425 | 0.211 | 0.792 | 0.936 | 0.794 | 0.261 | 0.311 | 0.726 | 0.335 | 0.974 | 0.731
CC(=O)c1c(C)c2cnc(Nc3ccc(N4CCNCC4)cn3)nc2n(C2CCCC2)c1=O [Palbociclib] + CC1(C)CCC(CN2CCN(c3ccc(C(=O)NS(=O)(=O)c4ccc(NCC5CCOCC5)c([N+](=O)[O-])c4)c(Oc4cnc5[nH]ccc5c4)c3)CC2)=C(c2ccc(Cl)cc2)C1 [Venetoclax] (first compound max 10 µM, 7x7, partner max 1 µM) | 0.231 | 0.29 | 0.327 | 0.448 | 0.243 | 0.112 | 0.333 | 0.409 | 0.95 | 0.0711 | 0.0427 | 0.478 | 0.42 | 0.153 | 0.115 | 0.164 | 0.401 | 0.194 | 0.329 | 0.385
C=CCn1c(=O)c2cnc(Nc3ccc(N4CCN(C)CC4)cc3)nc2n1-c1cccc(C(C)(C)O)n1 [AZD1775] + O=C(c1cc(Cc2n[nH]c(=O)c3ccccc23)ccc1F)N1CCN(C(=O)C2CC2)CC1 [Olaparib] (first compound max 1 µM, partner max 10 µM) | 0.836 | 0.284 | 0.148 | 0.848 | 0.761 | 0.474 | 0.529 | 0.82 | 0.981 | 0.719 | 0.375 | 0.454 | 0.723 | 0.417 | 0.342 | 0.271 | 0.886 | 0.384 | 0.953 | 0.603
NC1(C(=O)N[C@@H](CCO)c2ccc(Cl)cc2)CCN(c2ncnc3[nH]ccc23)CC1 [Capivasertib] + CC(=O)c1c(C)c2cnc(Nc3ccc(N4CCNCC4)cn3)nc2n(C2CCCC2)c1=O [Palbociclib] (first compound max 10 µM, 7x7, partner max 10 µM) | 0.387 | 0.465 | 0.25 | 0.566 | 0.891 | 0.498 | 0.44 | 0.657 | 0.97 | 0.395 | 0.18 | 0.607 | 0.301 | 0.628 | 0.429 | 0.224 | 0.5 | 0.415 | 0.945 | 0.473
CCN(CCO)CCCOc1ccc2c(Nc3cc(CC(=O)Nc4cccc(F)c4)[nH]n3)ncnc2c1 [AZD2811] + C[C@@H]1COCCN1C2=NC(=NC(=C2)C3(CC3)[S@](=N)(=O)C)C4=C5C=CNC5=NC=C4 [AZD6738] (first compound max 1 µM, 7x7, partner max 10 µM) | 0.827 | 0.418 | 0.144 | 0.746 | 0.849 | 0.0804 | 0.758 | 0.902 | 0.978 | 0.785 | 0.172 | 0.515 | 0.957 | 0.819 | 0.38 | 0.311 | 0.685 | 0.553 | 0.706 | 0.417
COc1cccc(OCCCN)c1-c1cc(Nc2cnc(C#N)cn2)n[nH]1 [Prexasertib] + CN(C)CCCOc1ccc(-c2ccc3ncc4c(c3c2)n(C2CCOCC2)c(=O)n4C)cn1 [AZD0156] (first compound max 1 µM, 7x7, partner max 1 µM) | 0.849 | 0.386 | 0.275 | 0.909 | 0.924 | 0.571 | 0.516 | 0.981 | 1 | 0.857 | 0.408 | 0.614 | 0.999 | 0.782 | 0.561 | 0.41 | 0.722 | 0.388 | 0.944 | 0.696
CC1(C)CCC(CN2CCN(c3ccc(C(=O)NS(=O)(=O)c4ccc(NCC5CCOCC5)c([N+](=O)[O-])c4)c(Oc4cnc5[nH]ccc5c4)c3)CC2)=C(c2ccc(Cl)cc2)C1 [Venetoclax] + COc1cc(Nc2ncc3c(n2)-c2ccc(Cl)cc2C(c2c(F)cccc2OC)=NC3)ccc1C(=O)O [Alisertib] (first compound max 1 µM, 7x7, partner max 10 µM) | 0.778 | 0.405 | 0.809 | 0.803 | 0.514 | 0.198 | 0.726 | 0.932 | 0.995 | 0.688 | 0.339 | 0.347 | 0.827 | 0.0718 | 0.241 | 0.246 | 0.795 | 0.276 | 0.765 | 0.387
COc1cccc(OCCCN)c1-c1cc(Nc2cnc(C#N)cn2)n[nH]1 [Prexasertib] + C=CCn1c(=O)c2cnc(Nc3ccc(N4CCN(C)CC4)cc3)nc2n1-c1cccc(C(C)(C)O)n1 [AZD1775] (first compound max 1 µM, partner max 1 µM) | 0.924 | 0.593 | 0.473 | 0.936 | 0.914 | 0.649 | 0.75 | 0.962 | 1 | 0.903 | 0.688 | 0.67 | 0.994 | 0.759 | 0.604 | 0.599 | 0.861 | 0.478 | 1 | 0.853
COc1nnc2ccc(N3CCC(c4ccc(OCCN5CCN(C)C(=O)[C@H]5C)cc4)CC3)nn12 [AZD5153] + CC1(C)CCC(CN2CCN(c3ccc(C(=O)NS(=O)(=O)c4ccc(NCC5CCOCC5)c([N+](=O)[O-])c4)c(Oc4cnc5[nH]ccc5c4)c3)CC2)=C(c2ccc(Cl)cc2)C1 [Venetoclax] (first compound max 1 µM, 7x7, partner max 1 µM) | 0.477 | 0.583 | 0.887 | 0.559 | 0.754 | 0.648 | 0.464 | 0.334 | 0.693 | 0.411 | 0.621 | 0.513 | 0.673 | 0.728 | 0.468 | 0.227 | 0.682 | 0.368 | 0.909 | 0.431
COc1cccc(OCCCN)c1-c1cc(Nc2cnc(C#N)cn2)n[nH]1 [Prexasertib] + CCc1c2c(nc3ccc(O)cc13)-c1cc3c(c(=O)n1C2)COC(=O)[C@]3(O)CC [SN-38] (first compound max 1 µM, 7x7, partner max 0.3 µM) | 1 | 0.559 | 0.878 | 0.976 | 0.922 | 0.76 | 0.984 | 0.96 | 1 | 0.898 | 0.797 | 0.863 | 0.985 | 0.867 | 0.642 | 0.693 | 1 | 0.71 | 1 | 0.975
CCN(CCO)CCCOc1ccc2c(Nc3cc(CC(=O)Nc4cccc(F)c4)[nH]n3)ncnc2c1 [AZD2811] + C=CCn1c(=O)c2cnc(Nc3ccc(N4CCN(C)CC4)cc3)nc2n1-c1cccc(C(C)(C)O)n1 [AZD1775] (first compound max 1 µM, partner max 1 µM) | 0.893 | 0.396 | 0.111 | 0.77 | 0.803 | 0.604 | 0.41 | 0.817 | 0.992 | 0.682 | 0.158 | 0.376 | 0.913 | 0.641 | 0.333 | 0.235 | 0.734 | 0.278 | 0.961 | 0.461
